Our source for the TGI values is PubChem BioAssay (NCI).

Test systems include SNB-75 CNS; COLO 205 colon; SN12C renal; NCI-H23 lung; OVCAR-5 ovarian; PC-3 prostate; HOP-62 NSCLC; M14 melanoma; UO-31 renal; RPMI-8226 leukemia.
Holding throughout (assay): DTP human tumour cell line panel, 48 h

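Method: 48-hour compound exposure of cells in 96-well plates, five concentrations, linear interpolation of endpoints. TGI denotes the concentration required for complete inhibition of growth.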 Where only a bound is given, the exact number is not on record here.

As to `O=C(NC(=O)c1cc(-c2ccccc2)n[nH]1)c1ccccc1`, the TGI in the assay on SNB-75 CNS, with COLO 205 colon, with SN12C renal, in the assay with NCI-H23 lung, in the assay with OVCAR-5 ovarian and in the assay on PC-3 prostate was over 100 µM throughout. For the same compound, the TGI with HOP-62 NSCLC, in the assay on M14 melanoma and with UO-31 renal was over 100 µM in each case.
`COc1cc(OC)c2c3c(OC)cc(OC)c4c(=O)c(O)c(C[C@@H](C)O)c(c5c(C[C@@H](C)O)c(O)c(=O)c1c25)c43`: the TGI in the assay with SNB-75 CNS was 62.1 µM; in the assay on COLO 205 colon, 16.7 µM; with SN12C renal, 68.6 µM; in the assay with NCI-H23 lung, 40 µM; with OVCAR-5 ovarian, over 100 µM; with HOP-62 NSCLC it was over 100 µM. Further, the TGI with M14 melanoma is 47 µM; in the assay with UO-31 renal, over 100 µM.
As to `O=C(O)c1cnc(-n2[nH]c3c(c2=O)CCCC3)[nH]c1=O`, the TGI in the assay on COLO 205 colon, in the assay on SN12C renal, with RPMI-8226 leukemia, with NCI-H23 lung, in the assay on OVCAR-5 ovarian and in the assay with PC-3 prostate was over 100 µM throughout. Also, the TGI with M14 melanoma and with UO-31 renal was over 100 µM each time.
Regarding `CC(C)=CCC/C(C)=C/COc1c2ccoc2cc2oc(=O)ccc12`, the TGI in the assay on COLO 205 colon is 32.4 µM; in the assay on SN12C renal, over 100 µM; in the assay on RPMI-8226 leukemia, 42.1 µM; in the assay with NCI-H23 lung it was over 100 µM; in the assay on OVCAR-5 ovarian it was 75.8 µM; in the assay with PC-3 prostate it was over 100 µM. Also, the TGI with HOP-62 NSCLC was over 100 µM; with M14 melanoma, 89.1 µM; in the assay on UO-31 renal, 59.7 µM.
For `Clc1ccc(-c2cn3c(nc4ccccc43)c(/C=C/c3ccco3)n2)cc1`, the TGI in the assay on SNB-75 CNS was 83.5 µM; in the assay on COLO 205 colon, over 100 µM; with SN12C renal it was over 100 µM; with RPMI-8226 leukemia, 39.8 µM; in the assay with NCI-H23 lung it was over 100 µM; in the assay with OVCAR-5 ovarian, over 100 µM. Besides, the TGI in the assay on HOP-62 NSCLC, with M14 melanoma and in the assay on UO-31 renal was over 100 µM in each case.
Turning to `O=C(CCC=C(S(=O)(=O)c1ccccc1)S(=O)(=O)c1ccccc1)c1ccccc1`, the TGI in the assay on SNB-75 CNS was 9.57 µM; in the assay on COLO 205 colon, 19.8 µM; in the assay with SN12C renal, 13.1 µM; in the assay with OVCAR-5 ovarian it was 24 µM; in the assay on PC-3 prostate, 14.2 µM; in the assay on HOP-62 NSCLC it was 40.3 µM. In addition, the TGI was 20.9 µM in the assay on M14 melanoma and 18.3 µM in the assay on UO-31 renal.
On to `O=C(c1ccc(Cl)cc1)N(C(=S)N1CCN(c2ccccn2)CC1)C1CCCCC1`, for which the TGI with SNB-75 CNS, in the assay with COLO 205 colon, in the assay on SN12C renal, in the assay on RPMI-8226 leukemia, in the assay on NCI-H23 lung and with OVCAR-5 ovarian was over 100 µM in each case. The TGI with HOP-62 NSCLC, in the assay with M14 melanoma and with UO-31 renal was over 100 µM each time.
For the compound `CCOC(=O)/C(=C/c1ccc(C(=O)OC)cc1)N(CC)CC`, the TGI in the assay with COLO 205 colon, with SN12C renal, in the assay on RPMI-8226 leukemia, in the assay on NCI-H23 lung, in the assay on OVCAR-5 ovarian and with HOP-62 NSCLC was over 100 µM in each case. Further, the TGI in the assay on M14 melanoma and in the assay on UO-31 renal was over 100 µM in each case.
`O=C(CSc1nc(-c2ccccc2)c(-c2ccccc2)[nH]1)N/N=C/c1ccc(O)cc1`: the TGI with SNB-75 CNS stood at 52.7 µM; in the assay with COLO 205 colon it was 35.1 µM; in the assay on SN12C renal, 66.7 µM; with RPMI-8226 leukemia, 60.6 µM; in the assay with NCI-H23 lung it was 84.3 µM; in the assay on HOP-62 NSCLC it was 46.5 µM. Further, the TGI with M14 melanoma turned out to be 40.6 µM; with UO-31 renal, 93.2 µM.
For `C/C=C1\CN(C(=O)OC(C)(C)C)C1C(=O)OC(C)(C)C` (centres undefined), the TGI in the assay with COLO 205 colon, in the assay with SN12C renal, in the assay on RPMI-8226 leukemia, in the assay on NCI-H23 lung, in the assay on OVCAR-5 ovarian and with PC-3 prostate was over 100 µM each time. Also, the TGI in the assay with HOP-62 NSCLC, in the assay on M14 melanoma and with UO-31 renal was over 100 µM throughout.
For `N=c1c2c(=S)n(-c3ccccc3)c(=S)n(-c3ccccc3)c2nc(SCCN2CCCC2)n1-c1ccccc1`, the concentration for total growth inhibition (TGI) worked out at 8.29 µM in the assay on SNB-75 CNS; 3.17 µM in the assay with COLO 205 colon; 3.46 µM with SN12C renal; 9.2 µM in the assay with NCI-H23 lung; 32.1 µM in the assay with OVCAR-5 ovarian; 3.3 µM in the assay with PC-3 prostate. The concentration for total growth inhibition (TGI) is 12.4 µM in the assay on HOP-62 NSCLC and 3.44 µM in the assay with M14 melanoma.
Turning to `COC(=O)c1c(C#N)c(N)nc2c1CCC2`, the TGI in the assay on COLO 205 colon, with SN12C renal, in the assay on RPMI-8226 leukemia, with NCI-H23 lung, in the assay with OVCAR-5 ovarian and in the assay with PC-3 prostate was over 100 µM in each case. Also, the TGI in the assay on HOP-62 NSCLC, in the assay with M14 melanoma and in the assay on UO-31 renal was over 100 µM each time.
Take `N#C/C(=C/c1ccc2c(c1)OCO2)C(=O)c1ccccc1`: the TGI in the assay on SNB-75 CNS, in the assay on COLO 205 colon, in the assay on SN12C renal, with RPMI-8226 leukemia, with NCI-H23 lung and with OVCAR-5 ovarian was over 100 µM each time. Further, the TGI in the assay with HOP-62 NSCLC, with M14 melanoma and in the assay on UO-31 renal was over 100 µM throughout.
With `CCOC(=O)C(Cc1c[nH]c2cc([N+](=O)[O-])ccc12)NS(=O)(=O)c1ccc2ccccc2c1` (centres undefined), the TGI with SNB-75 CNS is 50.4 µM; in the assay with COLO 205 colon, 32.1 µM; in the assay with SN12C renal it was 34.4 µM; in the assay on RPMI-8226 leukemia, over 100 µM; in the assay on NCI-H23 lung it was 48.4 µM; with HOP-62 NSCLC, 31.4 µM. The TGI in the assay with M14 melanoma was 34.1 µM; in the assay with UO-31 renal, 63.5 µM.

A word on the TGI: it is the concentration at which net growth stops. Low readings indicate greater sensitivity of the cells, high ones lower sensitivity of the cells.
